Patent EP0428423A2, “Aryloxy alkyl benzenes, processes for their preparation and pharmaceutical compositions containing them” (LIPHA S.A., priority 1989, dated 1991)

Tests used:
lipoxygénase de soja = biological target: T1, lipoxygénase de soja (Glycine max, UniProt P08170); experiment: Anti-lipoxygenase action on soybean lipoxygenase; format: biochemical
T1 sequence (P08170 1-839): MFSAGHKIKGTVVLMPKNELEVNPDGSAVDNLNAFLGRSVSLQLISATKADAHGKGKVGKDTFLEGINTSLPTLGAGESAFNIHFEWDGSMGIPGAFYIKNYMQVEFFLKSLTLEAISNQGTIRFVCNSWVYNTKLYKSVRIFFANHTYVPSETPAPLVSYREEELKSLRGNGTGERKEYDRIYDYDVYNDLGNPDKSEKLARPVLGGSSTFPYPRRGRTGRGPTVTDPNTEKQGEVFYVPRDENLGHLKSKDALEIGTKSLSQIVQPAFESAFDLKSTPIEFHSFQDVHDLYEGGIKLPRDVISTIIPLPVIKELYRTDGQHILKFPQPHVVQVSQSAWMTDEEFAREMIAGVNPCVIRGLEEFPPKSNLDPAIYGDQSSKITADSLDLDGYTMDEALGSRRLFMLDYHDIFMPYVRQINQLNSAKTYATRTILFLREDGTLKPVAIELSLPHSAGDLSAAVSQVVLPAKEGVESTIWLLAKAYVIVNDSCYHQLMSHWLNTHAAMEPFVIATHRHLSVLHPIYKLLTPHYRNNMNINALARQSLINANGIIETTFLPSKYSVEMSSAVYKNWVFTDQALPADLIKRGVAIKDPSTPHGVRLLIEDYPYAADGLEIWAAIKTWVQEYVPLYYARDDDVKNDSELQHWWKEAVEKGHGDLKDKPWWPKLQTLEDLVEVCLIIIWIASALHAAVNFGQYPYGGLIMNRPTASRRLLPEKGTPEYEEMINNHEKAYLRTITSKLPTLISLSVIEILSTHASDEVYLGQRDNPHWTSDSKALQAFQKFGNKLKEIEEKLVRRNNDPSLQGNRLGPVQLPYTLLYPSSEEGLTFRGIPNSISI
Excerpt: L'action anti-lipoxygénase a été étudiée sur la lipoxygénase de soja selon la méthode décrite par W.L SMITH et W.E LANDS (J. Biol. Chem. 247 (1972) 1038-1047)

RAT = experiment: Diuretic activity in the rat (hourly urine volume, sodium and potassium assay); format: in vivo; conditions: po; R = RAT; diuretic activity; read-out: Dose minimale active
Excerpt: (§1) d'urine sont déterminés toutes les heures. Le dosage de sodium et du potassium est effectué par spectrophotométrie.

[1] = test system: plasmas riches en plaquettes provenant de sang de rat; experiment: Platelet anti-aggregation in vitro, ADP-induced (Born aggregometer); format: cell-based; conditions: in vitro, aggregating agent ADP, rat platelet-rich plasma, 37°; M not defined in the text; mM printed only in the TICLOPIDINE line
Description: Les études ont été réalisées sur des plasmas riches en plaquettes provenant de sang de rat, l'agrégation étant induite par addition d'acide Adénosine diphosphorique. Les courbes néphélométriques d'agrégation sont obtenues en utilisant un agrégomètre de type BORN, le plasma étant placé en incubation à 37° avec agitation continue de 1100 t/mn (cf. BORN G.V.R et CROSS J. - J. Physiol. 168 (1962) 178.

ECHANGEUR D'ANIONS = biological target: T2, ECHANGEUR D'ANIONS (Homo sapiens, UniProt P02730); experiment: Anion exchanger of human erythrocytes; format: cell-based, ERYTHROCYTES HUMAINS
T2 construct: systèmes de transport du sodium et du potassium des érythrocytes humains; endogenous in cells; host or cells: human erythrocytes
T2 sequence (P02730 1-911): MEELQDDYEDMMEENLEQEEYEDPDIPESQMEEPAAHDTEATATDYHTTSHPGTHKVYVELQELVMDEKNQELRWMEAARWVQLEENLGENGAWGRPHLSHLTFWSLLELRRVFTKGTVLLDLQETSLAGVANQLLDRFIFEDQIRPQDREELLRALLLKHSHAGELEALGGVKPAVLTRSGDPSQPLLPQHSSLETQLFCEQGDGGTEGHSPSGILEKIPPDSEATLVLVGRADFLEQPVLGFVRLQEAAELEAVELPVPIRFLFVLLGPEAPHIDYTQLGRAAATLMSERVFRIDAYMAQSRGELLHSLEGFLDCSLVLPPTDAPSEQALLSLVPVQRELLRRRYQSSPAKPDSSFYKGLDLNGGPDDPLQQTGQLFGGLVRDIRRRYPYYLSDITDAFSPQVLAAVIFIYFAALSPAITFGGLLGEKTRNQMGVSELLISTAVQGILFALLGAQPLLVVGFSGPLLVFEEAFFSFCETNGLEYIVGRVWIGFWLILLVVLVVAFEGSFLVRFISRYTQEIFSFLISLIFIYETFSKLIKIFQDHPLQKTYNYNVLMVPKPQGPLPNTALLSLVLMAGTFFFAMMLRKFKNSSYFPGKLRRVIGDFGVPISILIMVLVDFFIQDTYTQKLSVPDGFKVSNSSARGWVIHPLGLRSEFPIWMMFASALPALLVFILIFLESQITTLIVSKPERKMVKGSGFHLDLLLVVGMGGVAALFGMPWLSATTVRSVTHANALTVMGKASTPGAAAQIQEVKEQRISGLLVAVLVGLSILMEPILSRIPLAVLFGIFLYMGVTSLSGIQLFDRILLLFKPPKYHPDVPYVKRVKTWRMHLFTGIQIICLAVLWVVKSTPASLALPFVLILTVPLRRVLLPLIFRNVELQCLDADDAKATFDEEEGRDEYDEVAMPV
Excerpt: Cet effet a été étudié selon la méthodologie décrite par G. GARAY et coll. dans Naunyn-Schmidberg's Arch. Pharmakol. 334 (1986) 202-209 et dans Bioch. Pharm. 33 (1984) 2013-2020.

COTRANSPORT Na-K = biological target: T3, COTRANSPORT Na-K (Homo sapiens, UniProt P55011); experiment: Na-K cotransport of human erythrocytes; format: cell-based, ERYTHROCYTES HUMAINS; conditions: human erythrocytes
T3 construct: systèmes de transport du sodium et du potassium des érythrocytes humains; endogenous in cells; host or cells: human erythrocytes
T3 sequence (P55011 1-1212): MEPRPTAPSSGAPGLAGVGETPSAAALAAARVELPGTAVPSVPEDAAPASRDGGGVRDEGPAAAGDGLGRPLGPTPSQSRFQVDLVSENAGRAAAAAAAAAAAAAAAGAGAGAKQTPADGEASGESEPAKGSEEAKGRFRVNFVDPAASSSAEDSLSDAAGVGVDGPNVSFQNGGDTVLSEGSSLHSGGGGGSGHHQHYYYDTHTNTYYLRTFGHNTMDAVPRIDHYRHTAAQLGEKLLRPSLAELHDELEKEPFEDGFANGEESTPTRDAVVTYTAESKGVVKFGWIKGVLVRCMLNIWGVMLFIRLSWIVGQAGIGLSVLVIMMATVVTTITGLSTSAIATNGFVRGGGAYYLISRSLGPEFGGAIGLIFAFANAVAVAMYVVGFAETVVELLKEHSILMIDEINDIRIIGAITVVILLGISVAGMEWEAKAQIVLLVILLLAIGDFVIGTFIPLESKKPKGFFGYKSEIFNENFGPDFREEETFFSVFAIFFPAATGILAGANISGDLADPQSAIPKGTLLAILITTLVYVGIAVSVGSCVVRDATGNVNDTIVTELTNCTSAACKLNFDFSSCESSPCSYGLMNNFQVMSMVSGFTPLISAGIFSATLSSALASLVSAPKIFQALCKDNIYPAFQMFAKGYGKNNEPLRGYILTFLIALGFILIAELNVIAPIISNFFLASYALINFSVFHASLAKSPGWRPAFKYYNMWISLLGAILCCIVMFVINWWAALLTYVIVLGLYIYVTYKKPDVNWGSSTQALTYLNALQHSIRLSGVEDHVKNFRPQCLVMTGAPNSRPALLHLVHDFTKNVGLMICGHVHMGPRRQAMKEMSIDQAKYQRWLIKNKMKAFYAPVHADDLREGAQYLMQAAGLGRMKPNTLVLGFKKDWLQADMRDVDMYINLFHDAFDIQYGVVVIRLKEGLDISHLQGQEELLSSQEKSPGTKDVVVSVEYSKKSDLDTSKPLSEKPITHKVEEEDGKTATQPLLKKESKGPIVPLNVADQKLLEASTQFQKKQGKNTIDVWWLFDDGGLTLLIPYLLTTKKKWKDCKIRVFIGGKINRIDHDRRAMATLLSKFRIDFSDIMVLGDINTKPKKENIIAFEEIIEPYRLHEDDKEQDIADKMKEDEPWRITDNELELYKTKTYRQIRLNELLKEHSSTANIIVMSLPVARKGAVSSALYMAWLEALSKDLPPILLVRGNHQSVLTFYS
Excerpt: Cet effet a été étudié selon la méthodologie décrite par G. GARAY et coll. dans Naunyn-Schmidberg's Arch. Pharmakol. […] Pharm.

SOURIS = experiment: Diuretic activity in the mouse (hourly urine volume, sodium and potassium assay); format: in vivo; conditions: S = SOURIS, PO, at the dose (minimal active dose)
Excerpt: as §1

ACTIVITE ANTI-LIPOXYGENASE IC 50 (lipoxygénase de soja): Inactif
EFFET SUR L'ECHANGEUR D'ANIONS IC 50 (ECHANGEUR D'ANIONS): Non actif
EFFET SUR LE COTRANSPORT Na-K IC 50 (COTRANSPORT Na-K): Non actif
Structure (SMILES): COc1cccc(CCOc2ccc(F)cc2)c1 [ex 169]
minimal effective dose (RAT): 12 mg/kg
M à 50 [1]: inactif
Pouvoir diurétique en % (SOURIS): Inactif
Rapport Na/K en % (SOURIS): Inactif
